The METLIN SMRT retention time set (Domingo-Almenara et al. 2019)

Test: gradient 5% acetonitrile 3 min, to 50% in 2 min, to 85% in 15 min, held 3 min, 100 µL/min
Settings: column: Zorbax Extend-C18 2.1 x 50 mm; eluents: water / acetonitrile, 0.1% formic acid
Method in brief: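 Using water and acetonitrile that each contained 0.1% formic acid, mixtures of ~100 pure standards were separated at 100 μL/min on a Zorbax Extend-C18 column (2.1 × 50 mm, 1.8 μm). The HPLC fed a quadrupole time-of-flight mass spectrometer working in positive and negative ionization mode, with dead and dwell volumes of 40 μL and 900 μL. Data were acquired over 3 months. Retention time was read from computationally picked adduct peaks after manual inspection of each.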

RP-LC retention time [s] | Compound
905 | Cc1ccc(Sc2ccc(N3CCCC(C(=O)NCc4ccccc4)C3)nn2)cc1 (centres undefined)
873 | CCOc1cn(-c2ccc(F)cc2)nc1C(=O)NCc1cccs1
839 | COc1ccc(NC(=O)Cn2c(=O)c(CCC(=O)NC3CCCCC3)nc3ccccc32)c(OC)c1
577 | Cc1cc(NCCCC(=O)NC2CC2)n2nc(-c3cccnc3)nc2n1
889 | CCCOc1ccc(CNC(=O)C2CCCN(c3ncnc4c3oc3ccccc34)C2)cc1 (centres undefined)
813 | CC(CC(=O)NCCC1=CCCCC1)Cc1nnc2c(=O)n(-c3cccc(F)c3)ccn12 (centres undefined)
716 | CCCNc1cc(N2CCC(CCC(=O)NCc3ccc(C)cc3)CC2)ncn1
759 | O=C(NC1CCCCC1)C1CCCN(S(=O)(=O)c2c[nH]c(C(=O)N3CCCC3)c2)C1 (centres undefined)
587 | Cc1ccc(S(=O)Cc2ccc(C(=O)N3CCN(c4ccccn4)CC3)o2)cc1 (centres undefined)
881 | Cc1cc(C)c2sc(NC(=O)c3ccco3)nc2c1
808 | Cc1ccc2[nH]cc(CCNC(=O)CC3CCN(C(=O)NC4CCCCC4)CC3)c2c1
638 | Cc1noc(C)c1C1CCCN1C(=O)c1ccnn1C (centres undefined)
603 | Cc1ccc(-c2cc(C(=O)N3CCN(C)CC3)[nH]n2)cc1C
657 | COc1ccccc1NC(=O)NCC(c1cccnc1)c1c[nH]c2ccccc12 (centres undefined)
1030 | CN(C)c1cccc(-c2nc(C3CC(=O)N(c4ccccc4)C3)no2)c1 (centres undefined)
606 | NC(=O)C1CCN(C(=O)c2cncc(NS(=O)(=O)c3ccc(F)cc3)c2)CC1
922 | CCOc1ccccc1NC(=O)C1CCN(S(=O)(=O)c2ccc3c(c2)sc(=O)n3CC)CC1
796 | CN(C)CC1CCC/C(=C\c2ccc(OC(=O)/C=C/c3ccccc3)cc2)C1=O (centres undefined)
844 | COc1ccc(-c2nnc(-c3ccc(C)c(S(=O)(=O)N4CCOCC4)c3)o2)cc1OC
1040 | Cc1ccc(-c2noc(Cc3nnc(-c4ccccc4)o3)n2)cc1
708 | CC(=O)Nc1ccc(C(=O)N2CCN(c3cc(-c4ccc(Cl)cc4)[nH]n3)CC2)cc1
833 | O=C(C1=NN(Cc2ccccc2F)c2cc(Cl)ccc2S1(=O)=O)N1CCOCC1

RP-LC retention time [s] | Compound
1340 | CCn1c(=O)n(Cc2cccc(Cl)c2)c(=O)c2cnc(-c3ccc(OC)cc3)nc21
611 | COc1ccc(Cl)cc1C(=O)NCCCOc1cccc2cccnc12
670 | CC(=O)N1CCc2c(sc(NC(=O)c3cc(=O)c4ccccc4o3)c2C#N)C1
816 | COC(=O)c1cc2n(n1)CC(C)(C(=O)NC1CCC(C)CC1)N(Cc1ccccc1)C2=O (centres undefined)
582 | CCN(CCN(C)C)c1ccc(C(=O)O)cc1NS(=O)(=O)c1ccccc1Cl
602 | CN(C)C(CNC(=O)c1ccccc1C(F)(F)F)c1cn(C)c2ccccc12 (centres undefined)
623 | CCOC(=O)N1CCN(C(=O)CSc2nnc3n2CCN3c2ccc(OC)cc2)CC1
677 | Cc1ccn2c(NC(=O)c3cccc([N+](=O)[O-])c3C)c(-c3ccccc3)nc2c1
567 | CC(C)n1c(C2CCN(C(=O)Cc3cccc(Cl)c3)C2)nc2ccncc21 (centres undefined)
557 | O=C(NCC#CCN1CCc2ccccc2C1)Nc1cccs1
1230 | CCN(C(=O)Cn1nc2cc(C)nc(Nc3ccc(C)c(C)c3)n2c1=O)c1ccccc1
789 | CCN1C(=O)C2(CCN(C(=O)c3ccnn3CC)CC2)c2ccccc21
1060 | COc1cccc(NC(=O)CSc2cc(N3CCN(c4ccccc4F)CC3)ncn2)c1
664 | O=C(NCCS(=O)(=O)N1CCN(c2ncccn2)CC1)Nc1cccs1
788 | COc1cccc(S(=O)(=O)N2CCC(c3noc(-c4cnccn4)n3)C2)c1 (centres undefined)
978 | COc1ccc(NC(=O)N2c3ccccc3CC2c2nc(C3CC3)no2)c(C)c1 (centres undefined)
684 | Cc1nc(C)c(C(=O)N2CCC(N3C(=O)C4(CCCC4)C3c3scnc3C)CC2)s1 (centres undefined)
754 | O=C1CCCc2cc(S(=O)(=O)N3CCC(C(=O)N4CCN(c5ccccc5)CC4)CC3)ccc2N1
860 | COc1ccc(NC(=O)c2cccs2)c([N+](=O)[O-])c1
836 | C=CCN1C(=O)COc2ccc(-c3nc(NC(=O)COC)sc3C)cc21
890 | COc1ccc(-c2cn3c(CC(=O)N(Cc4ccco4)C4CCCCC4)csc3n2)cc1OC
1030 | Cc1nc(-c2cc(S(=O)(=O)Nc3ccc(Cl)cc3F)c(C)s2)cs1

The remaining lines, values behind:

Compound | RP-LC retention time [s]
CCc1ccc(S(=O)(=O)N2CCc3nc(-c4ccccc4)ncc3C2)cc1 | 1160
O=c1n(Cc2ccc(F)cc2)nc2c(-c3nc(-c4cccc(F)c4)no3)cccn12 | 971
CCC(=O)N1CCc2cc(N3CC(C(=O)Nc4ccccc4)CC3=O)ccc21 (centres undefined) | 720
O=C(CN1C(=O)C2CCCCN2c2ccc(C(=O)N3CCCC3)cc21)NCC1CCCO1 (centres undefined) | 672
O=C1C(OC2CCN(S(=O)(=O)c3ccc(C(F)(F)F)cc3)CC2)CCN1CC1CC1 (centres undefined) | 925
CN(C)CCNC(=O)CN1C(=O)CN(C(=O)NCc2ccccc2)c2ccccc21 | 606
O=C(NC1CCCCCCC1)C1CCCN(c2cn[nH]c(=O)c2)C1 (centres undefined) | 719
Cc1nnc(NC(=O)CCc2csc(NC(=O)c3ccco3)n2)s1 | 630
Fc1ccc(Cc2nc(-c3cccc(-c4ccn[nH]4)c3)no2)cc1 | 925
O=C(CNC(=O)c1cc2ccccc2o1)Nc1cccc(C(F)(F)F)c1 | 928
CC(C)(C)NC(=O)c1csc(-c2ccc(N3CCCC3)nc2)n1 | 670
Cc1ccc(N2N=C(C(=O)NCCN3CCOCC3)S(=O)(=O)c3cc(F)ccc32)cc1 | 654
CC(C)CN1CCN(C(=O)C2CCCN(c3nnc4ccc(C(F)(F)F)cn34)C2)CC1 (centres undefined) | 614
Cc1cc(NC(=O)N2CCN(CCn3c(C)nc4cccnc43)CC2)ccc1Br | 641
CN(C)c1ccc(C(CNC(=O)c2ccccc2[N+](=O)[O-])N2CCOCC2)cc1 (centres undefined) | 560
COCCOCc1nc(C2CCCN2C(=O)c2ccsc2)no1 (centres undefined) | 679
Cc1cc(NC(=O)c2ccccc2)cc(C)c1O | 705
COCc1nnc(C(=O)Nc2ccc(C(=O)NCCc3c[nH]c4ccc(OC)cc34)cc2)s1 | 790
COc1ccc(CCc2nc3nccc(-c4ccccn4)n3n2)cc1 | 837
Cc1cc(C)c(C)c(S(=O)(=O)N2CCC3(CCN(c4cccnc4)C3)C2)c1C (centres undefined) | 762
Cc1ccccc1CNC(=O)C1(C)CCCN(C(=O)Nc2ccc(Br)cc2)C1 (centres undefined) | 1020
CSc1ccc(-c2nc3ccccn3c2Nc2ccc(Cl)cc2)cc1 | 779
Cc1[nH]c(-c2ccccc2)cc1C(=O)NC1CCCC1 | 845

Compound | RP-LC retention time [s]
O=C(NC1CCCC1)c1cccn1Cc1noc(-c2ccccc2)n1 | 981
CCCCCNC(=O)c1cn(C)nc1S(=O)(=O)N1CCSCC1 | 897
O=c1ccn(-c2ccc(Cl)cc2)nc1-c1nc(-c2cccc(Br)c2)no1 | 1080
O=C(NC1CCCCCC1)c1ccc(-c2ccsc2)nc1 | 943
CCCc1noc(-c2ccc(-n3cnc(C(=O)NC4CCCC4)c3)nc2)n1 | 915
Cc1ccc(NC(=O)c2cnn3c2CCCC3)cc1 | 770
CCN1C(=O)COc2ccc(-c3nc(NC(=O)CCc4ccccc4)sc3C)cc21 | 1040
O=C(Cc1cccc(Cl)c1)N1[C@H]2CC[C@@H]1c1cnc(-c3ccccc3)nc1C2 | 990
Cc1ccn2cc(-c3ccc(NC(=O)c4ccc(C(F)(F)F)cc4)cc3)nc2n1 | 739
Fc1ccc(F)c(-c2nc(-c3ccc4c(c3)ncn4CCN3CCCC3)no2)c1 | 624
CC1=C(c2ccc(C)cc2)S(=O)(=O)N=C1N1CCCN(C(=O)c2ccccc2F)CC1 | 846
COc1ccc(CNC(=O)CN2CCc3[nH]c4cc5c(cc4c(=O)c3C2)OCCO5)cc1OC | 585
Cc1ccc(/C=C/S(=O)(=O)N2CC(c3nc(-c4ncccn4)no3)C2)cc1 | 729
Cc1cc(C)cc(-n2ncc3c(N4CCN(CCO)CC4)ncnc32)c1 | 649
CCCC(=O)N1CCN(c2nc(CN3CCOCC3)cs2)CC1 | 580
Cc1ccccc1OCCCC(=O)Nc1nc(-c2ccc(Br)cc2)cs1 | 1280
COc1ccc(N2C(=O)CCC(C(=O)NC3CCCCCC3)C2c2ccc(F)cc2)cc1 (centres undefined) | 839
Cc1ccc(NC(=O)C2CCCN2S(=O)(=O)c2cc3c(cc2C)NC(=O)CO3)cc1 (centres undefined) | 758
COc1ccc(CNC(=O)C2CCCN(c3nccnc3Sc3ccccc3)C2)cc1OC (centres undefined) | 1120
Fc1cccc(CN2CCC(N3CC(OCC4CC4)C34CCCCC4)CC2)c1 (centres undefined) | 588
Cc1ccccc1CC(=O)Nc1cc(-c2cccs2)no1 | 969
CCOc1ccc(Br)cc1C(=O)N1CCNC(=O)C1CC(=O)OC1CCCCC1 (centres undefined) | 876
